{
  "source": "ChEMBL document CHEMBL5154699",
  "about": "(Eur J Med Chem, 2022)",
  "key": {"[1]": {"molecular_target": "T1, Sigma intracellular receptor 2 (Rattus norvegicus, UniProt Q5U3Y7)", "T1 sequence (Q5U3Y7 whole entry)": "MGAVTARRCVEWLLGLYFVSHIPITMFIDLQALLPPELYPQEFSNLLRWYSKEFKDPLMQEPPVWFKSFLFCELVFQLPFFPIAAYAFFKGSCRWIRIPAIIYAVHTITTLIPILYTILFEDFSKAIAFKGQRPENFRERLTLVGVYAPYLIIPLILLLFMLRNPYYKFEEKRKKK", "assay": "Displacement of [3H]-di-o-tolylguanidine from sigma2 receptor in rat liver membrane measured by competitive radioligand receptor binding assay", "format": "cell membranes"}, "[2]": {"molecular_target": "Delta-type opioid receptor (Rattus norvegicus, UniProt P33533)", "assay": "Displacement of [3H]-DPDPE from DOR in rat brain membranes measured by competitive radioligand receptor binding assay", "format": "cell membranes, Membrane"}, "[3]": {"molecular_target": "Kappa-type opioid receptor (Cavia porcellus, UniProt P41144)", "assay": "Displacement of [3H]-U69593 from KOR in guinea pig brain membranes measured by competitive radioligand receptor binding assay", "format": "cell membranes, Membrane"}, "[4]": {"molecular_target": "Sigma non-opioid intracellular receptor 1 (Cavia porcellus, UniProt Q60492)", "assay": "Displacement of [3H]-(+)-pentazocine from sigma1 receptor in guinea pig brain membrane measured by competitive radioligand receptor binding assay", "format": "cell membranes"}, "[5]": {"molecular_target": "Mu-type opioid receptor (Cavia porcellus, UniProt P97266)", "assay": "Displacement of [3H]-DAMGO from MOR in guinea pig brain membranes measured by competitive radioligand receptor binding assay", "format": "cell membranes, Membrane"}},
  "data": [
    {"compound": "O=C(Cc1ccc(Cl)c(Cl)c1)N1CC[C@H]2C[C@@H](N3CCCC3)[C@@H]1C2", "values": [
      {"measurement": "Ki", "setting": "[1]", "result": 0.534, "unit": "µM"},
      {"measurement": "Ki", "setting": "[2]", "result": 0.542, "unit": "µM"},
      {"measurement": "Ki", "setting": "[3]", "result": 0.007, "unit": "µM"},
      {"measurement": "Ki", "setting": "[4]", "result": 0.056, "unit": "µM"}
    ]},
    {"compound": "O=C(Cc1ccc(Cl)c(Cl)c1)N1CCC2CC1[C@@H](N1CCCC1)C2", "note": "(stereo partly drawn)", "values": [
      {"measurement": "Ki", "setting": "[3]", "result": 0.862, "unit": "µM"}
    ]},
    {"compound": "O=C(Cc1ccc(Cl)c(Cl)c1)N1CCN2CC[C@@H](N3CCCC3)C1C2", "note": "(stereo partly drawn)", "values": [
      {"measurement": "Ki", "setting": "[3]", "result": 0.073, "unit": "µM"}
    ]},
    {"compound": "CN(C)[C@@H]1C[C@@H]2CCN(C(=O)Cc3ccc(Cl)c(Cl)c3)[C@H]1C2", "values": [
      {"measurement": "Ki", "setting": "[1]", "result": 0.811, "unit": "µM"},
      {"measurement": "Ki", "setting": "[5]", "result": "> 1", "unit": "µM"},
      {"measurement": "Ki", "setting": "[3]", "result": 0.013, "unit": "µM"},
      {"measurement": "Ki", "setting": "[4]", "result": 0.292, "unit": "µM"}
    ]},
    {"compound": "CN(C)[C@@H]1CCC2CCN(C(=O)Cc3ccc(Cl)c(Cl)c3)C1C2", "note": "(mixture of isomers)", "values": [
      {"measurement": "Ki", "setting": "[1]", "result": 0.608, "unit": "µM"}
    ]},
    {"compound": "CN(C)[C@H]1C[C@H]2CCN(C(=O)Cc3ccc(Cl)c(Cl)c3)[C@@H]1C2", "values": [
      {"measurement": "Ki", "setting": "[1]", "result": 0.213, "unit": "µM"},
      {"measurement": "Ki", "setting": "[3]", "result": 0.531, "unit": "µM"},
      {"measurement": "Ki", "setting": "[4]", "result": 0.017, "unit": "µM"}
    ]},
    {"compound": "O=C(Cc1ccc(Cl)c(Cl)c1)N1CCN2CC[C@H](N3CCCC3)C1C2", "note": "(stereo partly drawn)", "values": [
      {"measurement": "Ki", "setting": "[3]", "result": "> 1", "unit": "µM"}
    ]},
    {"compound": "COC(=O)N1CCN(C(=O)Cc2ccc(Cl)c(Cl)c2)[C@H](CN2CCCC2)C1", "values": [
      {"measurement": "Ki", "setting": "[3]", "result": 0.00046, "unit": "µM"}
    ]},
    {"compound": "O=C(Cc1ccc(Cl)c(Cl)c1)N1CCC2CC1[C@H](N1CCCC1)C2", "note": "(stereo partly drawn)", "values": [
      {"measurement": "Ki", "setting": "[3]", "result": 0.007, "unit": "µM"}
    ]},
    {"compound": "O=C(Cc1ccc(Cl)c(Cl)c1)N1CC[C@@H]2CC[C@H](N3CCCC3)[C@H]1C2", "values": [
      {"measurement": "Ki", "setting": "[1]", "result": 0.487, "unit": "µM"}
    ]},
    {"compound": "O=C(Cc1ccc(Cl)c(Cl)c1)N1CC[C@H]2CC[C@@H](N3CCCC3)[C@@H]1C2", "values": [
      {"measurement": "Ki", "setting": "[1]", "result": 0.154, "unit": "µM"}
    ]},
    {"compound": "O=C(Cc1ccc(Cl)c(Cl)c1)N1CC[C@H]2C[C@@H]1[C@@H](N1CCCC1)C2", "values": [
      {"measurement": "Ki", "setting": "[1]", "result": 0.171, "unit": "µM"},
      {"measurement": "Ki", "setting": "[3]", "result": 1.75, "unit": "µM"},
      {"measurement": "Ki", "setting": "[4]", "result": 0.01, "unit": "µM"}
    ]},
    {"compound": "O=C(Cc1ccc(Cl)c(Cl)c1)N1CCCCC1CN1CCCC1", "note": "(stereo not drawn)", "values": [
      {"measurement": "Ki", "setting": "[3]", "result": 0.00024, "unit": "µM"}
    ]}
  ]
}
